From article PMC10150366, “Discovery of an In Vivo Chemical Probe for BCL6 Inhibition by Optimization of Tricyclic Quinolinones” (Journal of Medicinal Chemistry, 2023)

Tests used:
kinase panel (468) [1] = molecular target: kinase panel (468) (Homo sapiens, UniProt P00519, H396P); assay: KINOMEscan scanMAX kinase panel (468); assay type: binding
kinase panel (468) [2] = assay: KINOMEscan scanMAX kinase panel (468); assay type: binding; conditions: for Percent Control: 10000 nM
ADORA2A = ADORA2A (Homo sapiens, UniProt P29274); assay: SAFETYscan Calcium Flux ADORA2A Agonist; assay type: cell-based
Source text: (§1) Supplement jm3c00155_si_002.xlsx, sheet "SAFETYScan" | column: RC50 (uM); Max Response

AVPR1A = AVPR1A (Homo sapiens, UniProt P37288); assay: SAFETYscan Calcium Flux AVPR1A Agonist; assay type: cell-based
Source text: as §1

HRH1 [3] = molecular target: T1, HRH1 (Homo sapiens, UniProt P35367); assay: SAFETYscan Calcium Flux HRH1 Agonist; assay type: cell-based
Source text: as §1

HTR2B = HTR2B (Homo sapiens, UniProt P41595); assay: SAFETYscan Calcium Flux HTR2B Agonist; assay type: cell-based
Source text: as §1

CCKAR = molecular target: T2, CCKAR (Homo sapiens, UniProt P32238); assay: SAFETYscan Calcium Flux CCKAR Antagonist; assay type: cell-based
T2 sequence (P32238 1-428): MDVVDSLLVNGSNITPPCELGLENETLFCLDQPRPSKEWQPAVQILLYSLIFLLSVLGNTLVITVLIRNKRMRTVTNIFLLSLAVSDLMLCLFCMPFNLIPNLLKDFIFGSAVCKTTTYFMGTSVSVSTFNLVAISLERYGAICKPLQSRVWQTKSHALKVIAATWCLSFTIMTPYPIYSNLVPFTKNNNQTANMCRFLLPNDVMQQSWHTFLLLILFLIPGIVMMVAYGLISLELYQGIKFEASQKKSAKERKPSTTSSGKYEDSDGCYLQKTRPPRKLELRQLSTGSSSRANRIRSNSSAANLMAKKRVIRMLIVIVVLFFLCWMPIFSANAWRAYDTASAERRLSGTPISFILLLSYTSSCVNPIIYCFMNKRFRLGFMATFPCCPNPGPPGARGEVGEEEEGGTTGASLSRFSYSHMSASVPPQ
Source text: as §1

HRH1 [4] = molecular target: T1, HRH1; assay: SAFETYscan Calcium Flux HRH1 Antagonist; assay type: cell-based
Source text: as §1

ADRB1 [5] = molecular target: T3, ADRB1 (Homo sapiens, UniProt P08588); assay: SAFETYscan cAMP ADRB1 Agonist; assay type: cell-based
Source text: as §1

CHRM2 = molecular target: T4, CHRM2 (Homo sapiens, UniProt P08172); assay: SAFETYscan cAMP CHRM2 Agonist; assay type: cell-based
T4 sequence (P08172 1-466): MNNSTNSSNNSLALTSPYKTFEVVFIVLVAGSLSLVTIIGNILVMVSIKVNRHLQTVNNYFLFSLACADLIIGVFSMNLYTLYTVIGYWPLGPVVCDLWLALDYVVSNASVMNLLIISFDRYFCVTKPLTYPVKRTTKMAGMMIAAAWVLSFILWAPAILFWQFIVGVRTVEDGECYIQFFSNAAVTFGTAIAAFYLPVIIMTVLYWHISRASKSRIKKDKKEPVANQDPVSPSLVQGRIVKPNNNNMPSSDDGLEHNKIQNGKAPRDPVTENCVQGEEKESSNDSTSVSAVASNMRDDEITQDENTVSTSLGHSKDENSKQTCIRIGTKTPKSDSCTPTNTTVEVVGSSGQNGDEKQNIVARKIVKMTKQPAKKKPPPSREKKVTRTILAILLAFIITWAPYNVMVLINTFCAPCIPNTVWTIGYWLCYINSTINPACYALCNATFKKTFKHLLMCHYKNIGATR
Source text: (§2) Supplement jm3c00155_si_002.xlsx, sheet "SAFETYScan" | column: RC50 (uM); Hill; Max Response

OPRK1 = OPRK1 (Homo sapiens, UniProt P41145); assay: SAFETYscan cAMP OPRK1 Agonist; assay type: cell-based
Source text: as §1

ADRB1 [6] = molecular target: T3, ADRB1; assay: SAFETYscan cAMP ADRB1 Antagonist; assay type: cell-based
Source text: as §2

HRH2 = HRH2 (Homo sapiens, UniProt P25021); assay: SAFETYscan cAMP HRH2 Antagonist; assay type: cell-based
Source text: as §2

HTR1A = molecular target: T5, HTR1A (Homo sapiens, UniProt P08908); assay: SAFETYscan cAMP HTR1A Antagonist; assay type: cell-based
T5 sequence (P08908 1-422): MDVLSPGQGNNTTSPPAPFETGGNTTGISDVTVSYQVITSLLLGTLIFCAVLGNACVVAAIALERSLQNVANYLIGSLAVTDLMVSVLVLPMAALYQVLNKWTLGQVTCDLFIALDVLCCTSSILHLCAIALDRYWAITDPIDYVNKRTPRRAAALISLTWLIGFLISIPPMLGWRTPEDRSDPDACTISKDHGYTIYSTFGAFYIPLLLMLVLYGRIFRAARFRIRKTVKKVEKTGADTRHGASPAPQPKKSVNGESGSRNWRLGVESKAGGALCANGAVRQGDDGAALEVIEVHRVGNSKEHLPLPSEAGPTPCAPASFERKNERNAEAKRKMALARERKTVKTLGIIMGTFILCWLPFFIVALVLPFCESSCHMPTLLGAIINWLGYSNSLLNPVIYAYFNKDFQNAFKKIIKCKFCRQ
Source text: as §1

OPRD1 = OPRD1 (Homo sapiens, UniProt P41143); assay: SAFETYscan cAMP OPRD1 Antagonist; assay type: cell-based
Source text: as §1

NAV1.5 = NAV1.5 (Homo sapiens, UniProt Q14524); assay: SAFETYscan Ion Channel NAV1.5 Blocker; assay type: cell-based
Source text: as §1

KvLQT1/minK = KvLQT1/minK (Homo sapiens, UniProt P51787); assay: SAFETYscan Ion Channel KvLQT1/minK Opener; assay type: cell-based
Source text: as §1

AChE = AChE (Homo sapiens, UniProt P22303); assay: SAFETYscan Enzymatic AChE Inhibitor; assay type: biochemical
Source text: as §1

PDE3A = PDE3A (Homo sapiens, UniProt Q14432); assay: SAFETYscan Enzymatic PDE3A Inhibitor; assay type: biochemical
Source text: as §1

T3 sequence (P08588 whole entry): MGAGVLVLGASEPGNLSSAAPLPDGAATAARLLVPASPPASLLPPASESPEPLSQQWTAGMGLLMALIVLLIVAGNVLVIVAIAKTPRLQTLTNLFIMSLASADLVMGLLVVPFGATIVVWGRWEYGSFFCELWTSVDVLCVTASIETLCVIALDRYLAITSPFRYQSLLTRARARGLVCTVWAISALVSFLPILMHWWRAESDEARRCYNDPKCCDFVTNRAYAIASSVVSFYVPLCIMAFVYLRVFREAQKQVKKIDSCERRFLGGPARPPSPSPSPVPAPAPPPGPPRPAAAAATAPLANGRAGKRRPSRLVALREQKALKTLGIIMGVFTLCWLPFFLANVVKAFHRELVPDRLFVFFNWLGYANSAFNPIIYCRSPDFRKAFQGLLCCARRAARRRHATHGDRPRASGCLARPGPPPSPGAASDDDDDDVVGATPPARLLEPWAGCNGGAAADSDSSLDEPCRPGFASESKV
Chain of HRH2 (P25021 whole entry): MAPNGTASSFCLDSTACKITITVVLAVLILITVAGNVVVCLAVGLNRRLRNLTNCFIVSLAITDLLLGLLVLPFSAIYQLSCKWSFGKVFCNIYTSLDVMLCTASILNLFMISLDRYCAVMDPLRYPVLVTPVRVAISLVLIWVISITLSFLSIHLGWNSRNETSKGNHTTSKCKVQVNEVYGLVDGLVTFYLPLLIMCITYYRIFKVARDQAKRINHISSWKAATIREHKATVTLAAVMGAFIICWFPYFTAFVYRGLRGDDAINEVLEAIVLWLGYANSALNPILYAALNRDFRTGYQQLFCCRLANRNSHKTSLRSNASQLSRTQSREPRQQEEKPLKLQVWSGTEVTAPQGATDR
T1 sequence (P35367 whole entry): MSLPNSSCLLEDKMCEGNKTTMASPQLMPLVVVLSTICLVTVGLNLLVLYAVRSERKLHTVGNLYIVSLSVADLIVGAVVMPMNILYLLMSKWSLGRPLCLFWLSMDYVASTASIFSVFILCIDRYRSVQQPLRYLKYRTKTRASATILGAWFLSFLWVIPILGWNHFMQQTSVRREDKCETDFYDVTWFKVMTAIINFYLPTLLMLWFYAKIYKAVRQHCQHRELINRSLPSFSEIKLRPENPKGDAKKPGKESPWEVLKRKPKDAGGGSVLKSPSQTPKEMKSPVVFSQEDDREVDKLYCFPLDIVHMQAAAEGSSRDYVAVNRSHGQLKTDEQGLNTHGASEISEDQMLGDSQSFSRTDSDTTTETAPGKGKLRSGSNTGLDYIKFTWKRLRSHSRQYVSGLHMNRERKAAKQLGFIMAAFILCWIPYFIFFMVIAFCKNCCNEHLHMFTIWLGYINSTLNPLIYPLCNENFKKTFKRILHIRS
Chain of ADORA2A (P29274 whole entry): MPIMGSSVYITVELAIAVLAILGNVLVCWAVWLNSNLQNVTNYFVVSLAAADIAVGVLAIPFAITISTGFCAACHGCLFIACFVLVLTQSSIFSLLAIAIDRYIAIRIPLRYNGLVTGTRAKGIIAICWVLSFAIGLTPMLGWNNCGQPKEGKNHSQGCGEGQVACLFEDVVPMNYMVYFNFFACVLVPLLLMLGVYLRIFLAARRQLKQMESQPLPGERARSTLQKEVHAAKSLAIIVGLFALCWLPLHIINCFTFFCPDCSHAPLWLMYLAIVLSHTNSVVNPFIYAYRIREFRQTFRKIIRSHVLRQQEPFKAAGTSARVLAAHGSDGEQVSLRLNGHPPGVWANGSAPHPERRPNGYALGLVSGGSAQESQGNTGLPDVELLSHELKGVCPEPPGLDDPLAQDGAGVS
Chain of PDE3A (Q14432 whole entry, species assumed): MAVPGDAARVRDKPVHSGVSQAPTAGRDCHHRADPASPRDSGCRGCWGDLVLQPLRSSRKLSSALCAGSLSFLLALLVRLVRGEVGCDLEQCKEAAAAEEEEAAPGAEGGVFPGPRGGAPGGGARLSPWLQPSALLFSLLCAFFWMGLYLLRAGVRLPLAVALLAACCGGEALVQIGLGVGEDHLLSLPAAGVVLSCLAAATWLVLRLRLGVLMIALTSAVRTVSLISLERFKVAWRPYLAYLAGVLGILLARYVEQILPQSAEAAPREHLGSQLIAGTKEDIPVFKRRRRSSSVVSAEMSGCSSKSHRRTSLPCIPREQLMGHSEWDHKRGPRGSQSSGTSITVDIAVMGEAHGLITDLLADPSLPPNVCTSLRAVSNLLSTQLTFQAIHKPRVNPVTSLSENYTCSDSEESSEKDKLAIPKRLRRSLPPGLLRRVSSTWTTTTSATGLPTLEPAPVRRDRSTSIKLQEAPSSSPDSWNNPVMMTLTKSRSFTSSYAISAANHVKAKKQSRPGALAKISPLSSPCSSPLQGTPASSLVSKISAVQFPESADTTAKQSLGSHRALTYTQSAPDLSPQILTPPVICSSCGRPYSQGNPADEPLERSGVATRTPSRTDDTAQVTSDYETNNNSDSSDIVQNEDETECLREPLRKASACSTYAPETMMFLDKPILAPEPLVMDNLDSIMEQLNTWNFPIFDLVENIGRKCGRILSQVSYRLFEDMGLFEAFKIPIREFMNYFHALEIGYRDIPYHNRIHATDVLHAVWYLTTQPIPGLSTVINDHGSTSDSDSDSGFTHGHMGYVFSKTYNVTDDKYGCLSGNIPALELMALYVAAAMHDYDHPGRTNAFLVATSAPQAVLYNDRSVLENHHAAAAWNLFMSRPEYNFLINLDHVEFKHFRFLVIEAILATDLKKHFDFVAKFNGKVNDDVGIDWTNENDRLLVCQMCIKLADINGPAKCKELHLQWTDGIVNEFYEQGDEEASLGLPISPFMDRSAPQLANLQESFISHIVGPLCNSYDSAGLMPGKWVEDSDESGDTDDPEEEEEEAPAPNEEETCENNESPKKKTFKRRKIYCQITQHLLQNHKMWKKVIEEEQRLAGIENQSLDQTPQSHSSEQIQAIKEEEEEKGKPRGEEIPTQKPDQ
Chain of OPRK1 (P41145 whole entry): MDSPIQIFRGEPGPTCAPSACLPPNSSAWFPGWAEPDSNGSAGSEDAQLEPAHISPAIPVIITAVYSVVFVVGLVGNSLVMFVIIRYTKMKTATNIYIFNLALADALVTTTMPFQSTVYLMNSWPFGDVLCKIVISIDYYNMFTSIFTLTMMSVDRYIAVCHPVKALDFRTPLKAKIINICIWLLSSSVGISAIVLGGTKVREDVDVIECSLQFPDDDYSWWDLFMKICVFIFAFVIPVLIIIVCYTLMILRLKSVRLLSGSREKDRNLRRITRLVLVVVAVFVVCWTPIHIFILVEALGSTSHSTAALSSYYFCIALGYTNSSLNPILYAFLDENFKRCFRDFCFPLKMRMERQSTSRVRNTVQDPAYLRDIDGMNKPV
Chain of AVPR1A (P37288 whole entry): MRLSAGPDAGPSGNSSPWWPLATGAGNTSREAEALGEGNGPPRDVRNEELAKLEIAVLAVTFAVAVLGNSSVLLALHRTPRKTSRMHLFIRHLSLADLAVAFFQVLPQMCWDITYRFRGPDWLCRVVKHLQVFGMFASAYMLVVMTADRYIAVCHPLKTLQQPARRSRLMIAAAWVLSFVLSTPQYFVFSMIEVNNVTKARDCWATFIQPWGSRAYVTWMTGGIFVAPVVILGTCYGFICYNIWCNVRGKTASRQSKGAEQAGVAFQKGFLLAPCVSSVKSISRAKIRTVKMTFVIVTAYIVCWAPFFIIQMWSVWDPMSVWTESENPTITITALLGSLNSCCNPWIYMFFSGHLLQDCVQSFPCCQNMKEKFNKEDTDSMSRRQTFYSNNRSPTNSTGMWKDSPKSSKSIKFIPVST
Chain of OPRD1 (P41143 whole entry): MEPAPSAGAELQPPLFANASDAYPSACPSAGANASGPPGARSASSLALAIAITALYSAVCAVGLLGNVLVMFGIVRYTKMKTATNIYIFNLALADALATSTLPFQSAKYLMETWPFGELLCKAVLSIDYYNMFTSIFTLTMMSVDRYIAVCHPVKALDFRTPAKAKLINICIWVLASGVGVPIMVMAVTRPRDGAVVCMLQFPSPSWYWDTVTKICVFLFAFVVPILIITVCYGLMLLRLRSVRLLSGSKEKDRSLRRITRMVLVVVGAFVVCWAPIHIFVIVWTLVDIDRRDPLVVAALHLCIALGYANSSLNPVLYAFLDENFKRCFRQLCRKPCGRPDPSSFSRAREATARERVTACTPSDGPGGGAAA
Chain of AChE (P22303 32-614): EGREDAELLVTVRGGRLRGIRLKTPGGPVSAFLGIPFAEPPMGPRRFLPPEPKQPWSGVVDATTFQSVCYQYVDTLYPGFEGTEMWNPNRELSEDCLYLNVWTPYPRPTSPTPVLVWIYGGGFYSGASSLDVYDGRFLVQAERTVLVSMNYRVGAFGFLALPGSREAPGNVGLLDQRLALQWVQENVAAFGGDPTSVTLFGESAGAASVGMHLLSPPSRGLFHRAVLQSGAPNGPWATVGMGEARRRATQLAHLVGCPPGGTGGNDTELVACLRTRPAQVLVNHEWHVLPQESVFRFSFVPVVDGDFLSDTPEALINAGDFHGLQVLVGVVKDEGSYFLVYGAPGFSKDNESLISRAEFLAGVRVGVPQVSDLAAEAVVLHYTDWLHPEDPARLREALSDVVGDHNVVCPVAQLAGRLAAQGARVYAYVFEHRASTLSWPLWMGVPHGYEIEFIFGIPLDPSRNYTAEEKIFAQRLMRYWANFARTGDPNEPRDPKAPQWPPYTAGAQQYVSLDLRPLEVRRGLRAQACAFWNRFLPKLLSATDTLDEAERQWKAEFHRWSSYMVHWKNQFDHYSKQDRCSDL

**Q.** Which “Percent Control” value (kinase panel (468) [1]) does the source give for `Cn1c(=O)c2c(c3cc(Nc4ccnc(F)c4Cl)ccc31)N[C@@H](C1CC1)C(F)(F)CO2` [compound 17, (S)-10-((3-chloro-2-fluoropyridin-4-yl)amino)-2-cyclopropyl-3,3-difluoro-7-methyl-1,2,3,4-tetrahydro-[1,4]oxazepino[2,3-c]quinolin-6(7H)-one] here?
**A.** 84%

**Q.** What about the “kinase panel (468) outcome” value (kinase panel (468) [2]) of the same molecule?
**A.** selective activity and minimal off-target interactions

**Q.** What about the “Percent Control” value (kinase panel (468) [2]; EGFR(L747-E749del, A750P)) of the same molecule?
**A.** 93%

**Q.** And the “Percent Control” value (kinase panel (468) [2]; EGFR(L747-S752del, P753S))?
**A.** 67%

**Q.** And the “Percent Control” value (kinase panel (468) [2]; EGFR(L747-T751del,Sins))?
**A.** 100%

**Q.** And the “Percent Control” value (kinase panel (468) [2]; FLT3(ITD))?
**A.** 98%

**Q.** And the “Percent Control” value (kinase panel (468) [2]; FLT3(ITD,D835V))?
**A.** 100%

**Q.** And the “Percent Control” value (kinase panel (468) [2]; FLT3(ITD,F691L))?
**A.** 100%

**Q.** And the Emax (ADORA2A; read-out: Max Response)?
**A.** 0%

**Q.** And the EC50 (ADORA2A; read-out: RC50 (EC50))?
**A.** > 10 µM

**Q.** And the Emax (AVPR1A; read-out: Max Response)?
**A.** 0%

**Q.** And the EC50 (AVPR1A; read-out: RC50 (EC50))?
**A.** > 10 µM

**Q.** And the Emax (HRH1 [3]; read-out: Max Response)?
**A.** 0%

**Q.** And the EC50 (HRH1 [3]; read-out: RC50 (EC50))?
**A.** > 10 µM

**Q.** What about the EC50 (HTR2B) of the same molecule?
**A.** > 10 µM

**Q.** And the Emax (HTR2B; HTR2B, Calcium Flux, Agonist, read-out: Max Response)?
**A.** 0%

**Q.** And the Emax (CCKAR; read-out: Max Response)?
**A.** 0%

**Q.** And the IC50 (CCKAR; read-out: RC50 (IC50))?
**A.** > 10 µM

**Q.** What about the Emax (HRH1 [4]; read-out: Max Response) of the same molecule?
**A.** 14.2%

**Q.** What about the IC50 (HRH1 [4]; read-out: RC50 (IC50)) of the same molecule?
**A.** > 10 µM

**Q.** What about the Emax (ADRB1 [5]; read-out: Max Response) of the same molecule?
**A.** 0%

**Q.** And the EC50 (ADRB1 [5]; read-out: RC50 (EC50))?
**A.** > 10 µM

**Q.** What about the EC50 (CHRM2) of the same molecule?
**A.** 2.22 µM

**Q.** And the Hill (CHRM2; CHRM2, cAMP, Agonist)?
**A.** 1.63

**Q.** And the Emax (CHRM2; CHRM2, cAMP, Agonist, read-out: Max Response)?
**A.** 92.6%

**Q.** And the EC50 (OPRK1)?
**A.** > 10 µM

**Q.** And the Emax (OPRK1; OPRK1, cAMP, Agonist, read-out: Max Response)?
**A.** 21.1%

**Q.** What about the Hill (ADRB1 [6]) of the same molecule?
**A.** 1.19

**Q.** And the Emax (ADRB1 [6]; read-out: Max Response)?
**A.** 88.7%

**Q.** What about the IC50 (ADRB1 [6]; read-out: RC50 (IC50)) of the same molecule?
**A.** 1.6 µM

**Q.** And the Hill (HRH2)?
**A.** 1.03

**Q.** And the Emax (HRH2; read-out: Max Response)?
**A.** 65.2%

**Q.** And the IC50 (HRH2; read-out: RC50 (IC50))?
**A.** 4.76 µM

**Q.** What about the IC50 (HTR1A) of the same molecule?
**A.** > 10 µM

**Q.** And the Emax (HTR1A; HTR1A, cAMP, Antagonist, read-out: Max Response)?
**A.** 0%

**Q.** And the IC50 (OPRD1)?
**A.** > 10 µM

**Q.** What about the Emax (OPRD1; OPRD1, cAMP, Antagonist, read-out: Max Response) of the same molecule?
**A.** 46%

**Q.** What about the IC50 (NAV1.5) of the same molecule?
**A.** > 10 µM

**Q.** And the Emax (NAV1.5; NAV1.5, Ion Channel, Blocker, read-out: Max Response)?
**A.** 2.06%

**Q.** And the Emax (KvLQT1/minK; read-out: Max Response)?
**A.** 1.07%

**Q.** And the EC50 (KvLQT1/minK; read-out: RC50 (EC50))?
**A.** > 10 µM

**Q.** What about the Emax (AChE; read-out: Max Response) of the same molecule?
**A.** 9.89%

**Q.** And the IC50 (AChE; read-out: RC50 (IC50))?
**A.** > 10 µM

**Q.** What about the Emax (PDE3A; read-out: Max Response) of the same molecule?
**A.** 2.67%

**Q.** And the IC50 (PDE3A; read-out: RC50 (IC50))?
**A.** > 10 µM
